Reference: patent US20250282827A1, “LIPIDATED POLYMYXIN ANALOGUES” (priority 2021, published 2025)
Converted amounts (≈) assume the structure as drawn. Read-outs that look alike come from different tables or passages of the source. Positions of bridges follow the written chain, without caps; N, C: chain ends. Non-standard residues stand in square brackets, D forms with d. Residues, ends and D or L forms follow the SMILES beside them. *: point of attachment. Ethyl(2-propionyloxy) = CCC(=O)OCC*; Ethyl(2-OPiv) = CC(C)(C)C(=O)OCC*; Dab = NCC[C@H](N)C(=O)O

What was measured:
[1] = tested on: E. coli ATCC MS8345; assay type: cell-based, Escherichia coli
Excerpt: (§1) All 81 compounds prepared in Examples 2 and 3 underwent screening against a panel of Gram-negative bacterium to assess their ability to inhibit bacterial growth. […] The median value is presented.
Expansion of the polymyxin macrocycle by substituting […]) offered little advantage in antimicrobial activity but was generally well tolerated although for A. baumanni and P. aeruginosa this was detrimental.

[2] = tested on: A. baumannii ATCC 19606; assay type: cell-based, Acinetobacter baumannii
Excerpt: as §1

[3] = tested on: P. aeruginosa ATCC 27853; assay type: cell-based, Pseudomonas aeruginosa
Excerpt: as §1

[4] = tested on: Vero cell line; assay: Cellular toxicity against Vero cell line; assay type: cell-based
Method: (§2) FIG. 6 is a graph showing cell survival as a function of the indicated compound concentration. Data are representative of triplicate experiments.
(§3) To evaluate if the ClipPA modifications introduced any new toxicity, inhibitory concentrations against Vero and HaCaT cell lines were determined. […] The standard error for each measurement is shown.

[5] = tested on: E. coli ATCC 25922; assay type: cell-based, Escherichia coli
Excerpt: as §1

[6] = tested on: carbapenem-resistant Enterobacteriacea (CRE); assay type: cell-based
Excerpt: (§4) Given the promising antimicrobial activity and low toxicity associated with compounds 29, 35 and to a lesser extent 38, these compounds were progressed to a further round of phenotypic antimicrobial susceptibility testing using a panel of clinically relevant multidrug resistant Gram-negative pathogens. This panel included isolates phenotypically characterised as carbapenem-resistant Enterobacteriacea (CRE), extended spectrum β-lactamase (ESBL) producing Enterobacteriacea, colistin-resistant E. coli, carbapenem-resistant Acinetobacter baumannii (CRAB) or carbapenem-resistant Pseudomonas aeruginosa (CRPA). These isolates were chosen because each was resistant to multiple different families of clinically used antibiotics making treatment options limited and importantly, each of these pathogen types are recognised as “Priority 1: CRITICAL” on the World Health Organization (WHO) priority pathogen list for R&D of new antibiotics. Antimicrobial activity against any of these pathogens would therefore be of clinical importance. […] However, we note that many of the compounds tested in Example 4 did show good activity against colistin-resistant E. coli.

[7] = tested on: carbapenem-resistant Pseudomonas aeruginosa (CRPA); assay type: cell-based
Excerpt: as §4

[8] = tested on: carbapenem-resistant Acinetobacter baumannii (CRAB); assay type: cell-based
Excerpt: as §4

[9] = tested on: colistin-resistant E. coli; assay type: cell-based, Escherichia coli
Excerpt: as §4

[10] = tested on: K. pneumoniae ATCC MS6671; assay type: cell-based, Klebsiella pneumoniae
Excerpt: as §1

[11] = tested on: K. pneumoniae ATCC 33495; assay type: cell-based, Klebsiella pneumoniae
Excerpt: as §1

[12] = tested on: K. pneumoniae ATCC 700603; assay type: cell-based, Klebsiella pneumoniae
Excerpt: as §1

[13] = tested on: HaCaT cell line; assay: Cellular toxicity against HaCaT cell line; assay type: cell-based
Method: as §2, §3

[14] = tested on: extended spectrum β-lactamase (ESBL) producing Enterobacteriacea; assay type: cell-based
Excerpt: as §4

[15] = tested on: kidney organoids derived from human induced pluripotent stem cells; assay: Nephrotoxicity on kidney organoids, renal tubule deterioration by bright field imaging; assay type: cell-based; conditions: scored after 48 h; further: key: 1 = unaffected; 2 = mild deterioration; 3 = severe deterioration; 4 = complete deterioration
Method: Selected polymyxin analogues were evaluated for cytotoxicity in physiologically relevant human kidney tissue, using kidney organoids derived from human induced pluripotent stem cells (Soo et al. 2018). Monolipidated analogues 29, 31, 33, containing a propyl, decyl or phenyl lipid, dilapidated compounds, 35, 38, 39, containing a propyl, tert-butyl or phenyl, lipid, respectively and the N-capped, di-lipidated (phenyl) 49 were selected.
The control compound polymyxin B and the seven ClipPA analogues were tested by adding a range of concentrations (based on Gallado-Godoy et al. 2016) to the organoids at day 12 of the protocol, shown previously to correspond to optimal maturity of the organoid tissues.
Toxicity was scored after 48 h for signs of renal tubule deterioration visible by bright field imaging (not shown).

## CCC(=O)OCCSC[C@H](N)C(=O)N[C@@H](CCN)C(=O)N[C@H](C(=O)N[C@@H](CCN)C(=O)N[C@H]1CCNC(=O)[C@H]([C@@H](C)O)NC(=O)[C@H](CCN)NC(=O)[C@H](CCN)NC(=O)[C@H](CC(C)C)NC(=O)[C@@H](Cc2ccccc2)NC(=O)[C@H](CCN)NC1=O)[C@@H](C)O [Compound 29] (H-C(Ethyl(2-propionyloxy))[Dab]T[Dab][Dab][Dab][dF]L[Dab][Dab]T; lactam 5-C)
[1]; ATCC MS8345
  MIC E. coli ATCC MS8345: 32 µg/mL (≈ 25.3 µM)
[2]; ATCC 19606
  MIC A. baumannii ATCC 19606: 2 µg/mL (≈ 1.58 µM)
[3]; ATCC 27853
  MIC P. aeruginosa ATCC 27853: 2 µg/mL (≈ 1.58 µM)
[4]
  IC50 Vero: 2422 ± 38.98 µg/mL (≈ 1910 µM)
  amount required to cause inhibition: > 500 µg/mL
  fold less toxic towards Vero than Colistin or Polymyxin B: ~2.5 fold
[5]; ATCC 25922
  MIC E. coli ATCC 25922: 2 µg/mL (≈ 1.58 µM)
[6]; E. cloacae, IMP-4
  MIC: 2 µg/mL (≈ 1.58 µM)
[6]; E. coli, NDM-1
  MIC: 2 µg/mL (≈ 1.58 µM)
[6]; K. pneumoniae, KPC-2
  MIC: 2 µg/mL (≈ 1.58 µM)
[6]; K. pneumoniae, NDM-5
  MIC: 2 µg/mL (≈ 1.58 µM)
[7]; carbapenem-resistant (CRPA)
  MIC: >32 µg/mL
[8]; carbapenem-resistant (CRAB)
  MIC: 4 µg/mL (≈ 3.16 µM)
[9]; colistin-resistant
  MIC: >32 µg/mL
[10]; ATCC MS6671
  MIC K. pneumoniae ATCC MS6671: >32 µg/mL
[11]; ATCC 33495
  MIC K. pneumoniae ATCC 33495: 0.125 µg/mL (≈ 0.0987 µM)
[12]; ATCC 700603
  MIC K. pneumoniae ATCC 700603: 0.5 µg/mL (≈ 0.395 µM)
[13]
  IC50 HaCaT: 2534 ± 169.2 µg/mL (≈ 2000 µM)
  amount required to cause inhibition: > 500 µg/mL
  inhibitory effects against HaCaT compared with Colistin or Polymyxin B: comparable

## CCC(=O)OCCSC[C@@H]1NC(=O)[C@@H](Cc2ccccc2)NC(=O)[C@H](CCN)NC(=O)[C@@H](NC(=O)[C@H](CCN)NC(=O)[C@@H](NC(=O)[C@H](CCN)NC(=O)[C@@H](N)CSCCOC(=O)CC)[C@@H](C)O)CCNC(=O)[C@H]([C@@H](C)O)NC(=O)[C@H](CCN)NC(=O)[C@H](CCN)NC1=O [Compound 35] (H-C(Ethyl(2-propionyloxy))[Dab]T[Dab][Dab][Dab][dF]C(Ethyl(2-propionyloxy))[Dab][Dab]T; lactam 5-C)
[1]; ATCC MS8345
  MIC E. coli ATCC MS8345: >32 µg/mL
[2]; ATCC 19606
  MIC A. baumannii ATCC 19606: 32 µg/mL (≈ 23.6 µM)
[3]; ATCC 27853
  MIC P. aeruginosa ATCC 27853: >32 µg/mL
[5]; ATCC 25922
  MIC E. coli ATCC 25922: 0.5 µg/mL (≈ 0.369 µM)
[6]; E. cloacae, IMP-4
  MIC: 2 µg/mL (≈ 1.47 µM)
[6]; E. coli, NDM-1
  MIC: 2 µg/mL (≈ 1.47 µM)
[6]; K. pneumoniae, KPC-2
  MIC: 4 µg/mL (≈ 2.95 µM)
[6]; K. pneumoniae, NDM-5
  MIC: 4 µg/mL (≈ 2.95 µM)
[7]; carbapenem-resistant (CRPA)
  MIC: >32 µg/mL
[8]; carbapenem-resistant (CRAB)
  MIC: 8 µg/mL (≈ 5.9 µM)
[9]; colistin-resistant
  MIC: >32 µg/mL
[10]; ATCC MS6671
  MIC K. pneumoniae ATCC MS6671: >32 µg/mL
[11]; ATCC 33495
  MIC K. pneumoniae ATCC 33495: 1 to 2 µg/mL
[12]; ATCC 700603
  MIC K. pneumoniae ATCC 700603: 1 µg/mL (≈ 0.737 µM)

## C[C@@H](O)[C@@H]1NC(=O)[C@H](CCN)NC(=O)[C@H](CCN)NC(=O)[C@H](CSCCOC(=O)C(C)(C)C)NC(=O)[C@@H](Cc2ccccc2)NC(=O)[C@H](CCN)NC(=O)[C@@H](NC(=O)[C@H](CCN)NC(=O)[C@@H](NC(=O)[C@H](CCN)NC(=O)[C@@H](N)CSCCOC(=O)C(C)(C)C)[C@@H](C)O)CCNC1=O [Compound 38] (H-C(Ethyl(2-OPiv))[Dab]T[Dab][Dab][Dab][dF]C(Ethyl(2-OPiv))[Dab][Dab]T; lactam 5-C)
[1]; ATCC MS8345
  MIC E. coli ATCC MS8345: 16 µg/mL (≈ 11.3 µM)
[2]; ATCC 19606
  MIC A. baumannii ATCC 19606: 2 µg/mL (≈ 1.42 µM)
[3]; ATCC 27853
  MIC P. aeruginosa ATCC 27853: 4 µg/mL (≈ 2.83 µM)
[5]; ATCC 25922
  MIC E. coli ATCC 25922: 0.5 µg/mL (≈ 0.354 µM)
[6]; E. cloacae, IMP-4
  MIC: 2 µg/mL (≈ 1.42 µM)
[6]; E. coli, NDM-1
  MIC: 2 µg/mL (≈ 1.42 µM)
[6]; K. pneumoniae, KPC-2
  MIC: 2 µg/mL (≈ 1.42 µM)
[6]; K. pneumoniae, NDM-5
  MIC: 2 µg/mL (≈ 1.42 µM)
[7]; carbapenem-resistant (CRPA)
  MIC: >32 µg/mL
[8]; carbapenem-resistant (CRAB)
  MIC: 2 µg/mL (≈ 1.42 µM)
[9]; colistin-resistant
  MIC: 16 µg/mL (≈ 11.3 µM)
[10]; ATCC MS6671
  MIC K. pneumoniae ATCC MS6671: >32 µg/mL
[11]; ATCC 33495
  MIC K. pneumoniae ATCC 33495: 0.5 µg/mL (≈ 0.354 µM)
[12]; ATCC 700603
  MIC K. pneumoniae ATCC 700603: 0.5 µg/mL (≈ 0.354 µM)

## Polymyxin B [PMB, reference compound]
[1]; colistin-resistant strain, median of triplicate
  MIC E. coli ATCC MS8345: 4 µg/mL
[2]; median of triplicate
  MIC A. baumannii ATCC 19606: 0.5 µg/mL
[3]; median of triplicate
  MIC P. aeruginosa ATCC 27853: 0.25 µg/mL
[4]; Vero cell line, ± standard error
  IC50 Vero: 939.0 ± 63.32 µg/mL
[5]; median of triplicate
  MIC E. coli ATCC 25922: 0.25 µg/mL
[6]; E. cloacae, IMP-4
  MIC: 1 µg/mL
[6]; E. coli, NDM-1
  MIC: 1 µg/mL
[6]; K. pneumoniae, KPC-2
  MIC: 2 µg/mL
[6]; K. pneumoniae, NDM-5
  MIC: 2 µg/mL
[14]; E. coli, CTX-M-15
  MIC: 1 µg/mL
[14]; S. enterica, CTX-M-55
  MIC: 2 µg/mL
[7]; P. aeruginosa, CRPA, VIM-2
  MIC: 8 µg/mL
[7]; in words
  susceptibility of CRPA in words: resistant
[8]; A. baumannii, CRAB, OXA-23
  MIC: 1 µg/mL
[15]; 100 μM
  Score (nephrotoxicity on kidney organoids): 2
[15]; 300 μM
  Score (nephrotoxicity on kidney organoids): 3
[15]; 1 mM
  Score (nephrotoxicity on kidney organoids): 4
[9]; E. coli, CR (colistin-resistant), MCR-1
  MIC: 8 µg/mL
[9]; in words
  susceptibility of colistin-resistant E. coli in words: resistant
[10]; median of triplicate
  MIC K. pneumoniae ATCC MS6671: >32 µg/mL
[11]; median of triplicate
  MIC K. pneumoniae ATCC 33495: 0.5 µg/mL
[12]; median of triplicate
  MIC K. pneumoniae ATCC 700603: 0.25 µg/mL
[13]; HaCaT cell line, ± standard error
  IC50 HaCaT: 1998 ± 27.74 µg/mL
